Laboratory results published in patent US11242354B2, “4-sulfur substituted podophyllotoxin derivative and preparation method therefor and use thereof” (priority 2017, dated 2022).
Read-outs that look alike come from different tables or passages of the source.

Columns and labels:
HepG2 = assay: MTT test for inhibition of tumor cells, HepG2; type: cell-based; settings: 48 h
Procedure: (§1) HepG2, HeLa cell lines and human normal liver cells HL-7702 in a logarithmic growth period were centrifuged at 1000 rpm for 5 min, and the supernatant was discarded, the cells were suspended with a suitable amount of culture medium to adjust the cell concentration to 3.5×10^4/well, the cells were seeded in 96-well plates, and the following experimental groups were set:
(§2) 100 μl of DMSO was added to each well, followed by shaking on a shaker for 30 min at 37° C., the absorbance (OD) was measured at 492 nm, and the MTT ratio was calculated as the OD value of drug group/OD value of negative control group.

HeLa = assay: MTT test for inhibition of tumor cells, HeLa; type: cell-based; settings: 48 h
Procedure: as §1, §2

[1] = tested on: human normal hepatocytes HL-7702; assay: MTT test on human normal hepatocytes HL-7702; settings: read-out: IC50 HL-7702
Procedure: as §1, §2

[2] = tested on: human lung cancer cell A549; assay: Activity on tumor cell A549; type: cell-based; settings: vs etoposide
breast cancer cell MCF7 = assay: Activity on tumor cell MCF7; type: cell-based, human; settings: for antitumor activity on MCF7 compared with etoposide: vs etoposide
[3] = tested on: human normal hepatocytes HL-7702
Procedure: as §1, §2

[4] = tested on: human cervical immortalized cells H8; assay: Toxicity on normal cell line H8; type: cell-based
[5] = tested on: human embryonic lung cells MRC-5; assay: Toxicity on normal cell line MRC-5; type: cell-based; settings: MRC5
[6] = tested on: human mammary epithelial cells HMEC; assay: Toxicity on normal cell line HMEC; type: cell-based
[7] = human normal hepatocytes HL-7702, MTT, 48 h

Compound	IC50 (HepG2) [µM]	IC50 (HeLa) [µM]	IC50 [1, 7] [µM]	further results
COc1cc(C2c3cc4c(cc3C(Sc3nc5cc(OC(F)F)ccc5[nH]3)C3COC(=O)C23)OCO4)cc(OC)c1OC (stereo not drawn) [Compound 17, 4β-S-(5-difluoromethoxybenzimidazol-2)-podophyllotoxin]	0.92 ± 0.05	1.15 ± 0.16	8.15 ± 0.87	
COc1cc([C@@H]2c3cc4c(cc3[C@@H](Sc3nc5cc(F)ccc5o3)[C@H]3COC(=O)[C@H]23)OCO4)cc(OC)c1O [Compound 10, 4β-S -(5-fluorobenzoxazol-2)-4demethylepipodophyllotoxin]				antitumor activity on A549 compared with etoposide [2]: significantly improved; antitumor activity on MCF7 compared with etoposide (breast cancer cell MCF7): significantly improved; toxicity on HL-7702 cell line compared with control compounds [3]: significantly lower
4β-S-(6-chlorobenzoxazol-2)-podophyllotoxin [Compound 15]	5.23 ± 0.35	7.23 ± 0.44	43.3 ± 3.5	
COc1cc(C2c3cc4c(cc3C(Sc3nc5cc(F)ccc5s3)C3COC(=O)C23)OCO4)cc(OC)c1OC (stereo not drawn) [Compound 7, 4β-S-(5-fluorobenzothiazol-2)-podophyllotoxin]	1 ± 0.06	1.47 ± 0.32	97 ± 2.1	
COc1cc([C@@H]2c3cc4c(cc3[C@@H](Sc3nc5cc(F)ccc5s3)[C@H]3COC(=O)[C@H]23)OCO4)cc(OC)c1O [Compound 8, 4β-S-(5-fluorobenzothiazol-2)-4demethylepipodophyllotoxin]				antitumor activity on A549 compared with etoposide [2]: significantly improved; antitumor activity on MCF7 compared with etoposide (breast cancer cell MCF7): significantly improved; toxicity on HL-7702 cell line compared with control compounds [3]: significantly lower
COc1cc([C@@H]2c3cc4c(cc3[C@H](O)[C@H]3COC(=O)[C@H]23)OCO4)cc(OC)c1OC [Podophyllotoxin, podophyllotoxin]				IC50 (HepG2; Homo sapiens): 55.53 ± 0.24 µM; IC50 (HeLa; Homo sapiens): 75.81 ± 0.73 µM; IC50 ([1]; Homo sapiens, L02, 48 h): 67.18 ± 0.24 µM
COc1cc(C2c3cc4c(cc3C(Sc3nc5cc(F)ccc5o3)C3COC(=O)C23)OCO4)cc(OC)c1OC (stereo not drawn) [Compound 9, 4β-S-(5-fluorobenzoxazol-2)-podophyllotoxin]	0.89 ± 0.07		> 1000	
COc1cc(C2c3cc4c(cc3C(Sc3nc5cc(OC(F)F)ccc5[nH]3)C3COC(=O)C23)OCO4)cc(OC)c1O (stereo not drawn) [Compound 18, 4β-S-(5-difluoromethoxybenzimidazol-2)-4demethylepipodophyllotoxin]	2.09 ± 0.17	7.6 ± 0.51	11.3 ± 1.87	
COc1cc(C2c3cc4c(cc3C(Sc3cc(C(F)(F)F)ccn3)C3COC(=O)C23)OCO4)cc(OC)c1OC (stereo not drawn) [Compound 1, 4-β-S-(4-trifluoromethylpyridin-2)-podophyllotoxin]	2.04 ± 0.3	1.86 ± 0.2	57 ± 1.1	
4β-S-(5-phenylbenzoxazol-2)-podophyllotoxin [Compound 11]	5.25 ± 0.13	> 100	70.7 ± 1.65	
COc1cc(C2c3cc4c(cc3C(Sc3nccc(C(F)(F)F)n3)C3COC(=O)C23)OCO4)cc(OC)c1O (stereo not drawn) [Compound 4, 4-β-S-(4-trifluoromethylpyrimidin-2)-4demethylepipodophyllotoxin]	7.37 ± 0.32	39.36 ± 0.35	54.9 ± 0.98	
COc1cc(C2c3cc4c(cc3C(Sc3cc(C(F)(F)F)ccn3)C3COC(=O)C23)OCO4)cc(OC)c1O (stereo not drawn) [Compound 2, 4-β-S-(4-trifluoromethylpyridin-2)-4demethylepipodophyllotoxin]	4.5 ± 0.45	4.58 ± 0.13	42.3 ± 1.52	
4β-S-(6-chlorobenzoxazol-2)-4demethylepipodophyllotoxin [Compound 16]	22.3 ± 1.46	32.3 ± 1.87	68.3 ± 4.5	
4β-S-(3-phenyl-1,3,4-thiadiazol-2(3H)thione potassium salt-5)-4demethylepipodophyllotoxin [Compound 26]	5.7 ± 0.33	48.49 ± 0.38		
COc1cc(C2c3cc4c(cc3C(Sc3ccc(F)cc3)C3COC(=O)C23)OCO4)cc(OC)c1OC (stereo not drawn) [Compound 5, 4β-S-(4-fluorobenzene-1)-podophyllotoxin]	2.28 ± 0.1	9.5 ± 0.43	44.5 ± 1	
COc1cc(C2c3cc4c(cc3C(Sc3nccc(C(F)(F)F)n3)C3COC(=O)C23)OCO4)cc(OC)c1OC (stereo not drawn) [Compound 3, 4-β-S-(4-trifluoromethylpyrimidin-2)-podophyllotoxin]	5.05 ± 0.78	10.1 ± 0.22	69.8 ± 1.23	
COc1cc(C2c3cc4c(cc3C(Sc3nc5cc(C)ccc5o3)C3COC(=O)C23)OCO4)cc(OC)c1O (stereo not drawn) [Compound 14, 4β-S-(5-methylbenzoxazol-2)-4demethylepipodophyllotoxin]	7.94 ± 0.21	11.9 ± 0.99	78.7 ± 2.5	
4β-S-(5-phenylbenzoxazol-2)-4demethylepipodophyllotoxin [Compound 12]	10.2 ± 0.46	> 100	56.8 ± 1.32	
COc1cc([C@@H]2c3cc4c(cc3[C@@H](O[C@@H]3O[C@@H]5CO[C@@H](C)O[C@H]5[C@H](O)[C@H]3O)[C@H]3COC(=O)[C@H]23)OCO4)cc(OC)c1O [Etoposide, etoposide, reference compound]				IC50 (HepG2; Homo sapiens): 20.7 ± 1.7 µM; IC50 (HeLa; Homo sapiens): 25.4 ± 2.9 µM; IC50 [4]: 80.1 ± 1.35 µM; IC50 [5]: 30.3 ± 1.21 µM; IC50 (breast cancer cell MCF7; Homo sapiens, tumor cell line MCF7): 56.8 ± 1.22 µM; IC50 [6]: 23.2 ± 1.34 µM; IC50 ([1]; Homo sapiens, L02, 48 h): 28.8 ± 3.4 µM
4β-S-(3-phenyl-1,3,4-thiadiazol-2(3H)thione potassium salt-5)-podophyllotoxin [Compound 25]	2.2 ± 0.28	31.9 ± 0.42		
COc1cc([C@@H]2c3cc4c(cc3[C@@H](Sc3nc(-c5ccncc5)cs3)[C@H]3COC(=O)[C@H]23)OCO4)cc(OC)c1OC [Compound 27, 4β-S-(4-(4-pyridyl)thiazol-2)-podophyllotoxin]	0.89 ± 0.19	1.95 ± 0.36	71.4 ± 2.71	
COc1cc(C2c3cc4c(cc3C(Sc3ccc5ccccc5c3)C3COC(=O)C23)OCO4)cc(OC)c1OC (stereo not drawn) [Compound 19, 4β-S-(naphthalen-2)-podophyllotoxin]	3.06 ± 0.11	3.91 ± 0.42	90.9 ± 3.49	
COc1cc(C2c3cc4c(cc3C(Sc3nc5cc(C)ccc5o3)C3COC(=O)C23)OCO4)cc(OC)c1OC (stereo not drawn) [Compound 13, 4β-S-(5-methylbenzoxazol-2)-podophyllotoxin]	7.31 ± 0.4	9.31 ± 0.6	60.1 ± 1.6	
COc1cc([C@@H]2c3cc4c(cc3[C@@H](Sc3nc(-c5ccncc5)cs3)[C@H]3COC(=O)[C@H]23)OCO4)cc(OC)c1O [Compound 28, 4β-S-(4-(4-pyridyl)thiazol-2)-4demethylepipodophyllotoxin]	29.2 ± 1.34	24.1 ± 1.29	60.1 ± 2.88	
COc1cc(C2c3cc4c(cc3C(Sc3nc5ncccc5[nH]3)C3COC(=O)C23)OCO4)cc(OC)c1OC (stereo not drawn) [Compound 21, 4β-S-(1H-imidazo [4,5-B]pyridin-2)-podophyllotoxin]	4.23 ± 0.36	64.23 ± 0.45	56.6 ± 2.34	
COc1cc(C2c3cc4c(cc3C(Sc3nnnn3-c3ccccc3)C3COC(=O)C23)OCO4)cc(OC)c1OC (stereo not drawn) [Compound 23, 4β-S-(1-phenyltetrazol-5)-podophyllotoxin]	6.17 ± 0.27	15.8 ± 0.56	87.1 ± 4.2	
